Measurements reported in ChEMBL document CHEMBL1134893, “Novel 20-carbonate linked prodrugs of camptothecin and 9-aminocamptothecin designed for activation by tumour-associated plasmin” (2002).

What was measured:
Assay type in all cases: functional
Details in all cases: read-out: ID50 (the source's name)
[1] = system: MCF7; experiment: Inhibitory dose required against MCF-7 human tumor cell lines
[2] = system: EVSA-T; experiment: Inhibitory dose required against EVSA-T human tumor cell lines
[3] = system: WiDr; experiment: Inhibitory dose required against WIDR human tumor cell lines
[4] = system: IGROV-1; experiment: Inhibitory dose required against IGROV human tumor cell lines
[5] = system: A498; experiment: Inhibitory dose required against A498 human tumor cell lines
[6] = system: NCI-H226; experiment: Inhibitory dose required against H226 human tumor cell lines
[7] = system: M19-MEL; experiment: Inhibitory dose required against M19 human tumor cell lines

Structure (SMILES) | IC50 [1] [µg/mL] | IC50 [2] [µg/mL] | IC50 [3] [µg/mL] | IC50 [4] [µg/mL] | IC50 [5] [µg/mL] | IC50 [6] [µg/mL] | IC50 [7] [µg/mL]
CC[C@@]1(OC(=O)OCc2ccc(NC(=O)[C@H](CCCCN)NC(=O)[C@H](Cc3ccccc3)NC(=O)[C@@H](C)N)cc2)C(=O)OCc2c1cc1n(c2=O)Cc2cc3c(N)cccc3nc2-1.Cl.Cl.Cl | 0.019 | 0.137 | 0.007 | 0.008 | 0.039 | 0.021 | 0.01
CC[C@@]1(OC(=O)OCc2ccc(NC(=O)[C@H](CCCCN)NC(=O)[C@H](Cc3ccccc3)NC(=O)[C@@H](C)N)cc2)C(=O)OCc2c1cc1n(c2=O)Cc2cc3ccccc3nc2-1.Cl.Cl | 0.01 | 0.049 | 0.022 | 0.02 | 0.022 | 0.111 | 0.219
CC[C@@]1(O)C(=O)OCc2c1cc1n(c2=O)Cc2cc3c(N)cccc3nc2-1 [9-AMINOCAMPTOTHECIN] | < 0.0032 | < 0.0032 | < 0.0032 | < 0.0032 | < 0.01 | < 0.007 | < 0.024
CC[C@@]1(O)C(=O)OCc2c1cc1n(c2=O)Cc2cc3ccccc3nc2-1 [CAMPTOTHECIN] | < 0.0032 | < 0.0032 | < 0.0032 | < 0.0032 | < 0.0032 | < 0.005 | < 0.013
